Results as given in the supplement of paper PMC10307832.

What was measured:
Assay in all cases: relative viability (nuclei count vs DMSO), 5 days (fraction); higher = more cells survive
IPA-3 + Tozasertib = compound: C1=CC=C2C(=C1)C=CC(=C2SSC3=C(C=CC4=CC=CC=C43)O)O [IPA-3] + Cc1cc(Nc2cc(N3CCN(C)CC3)nc(Sc3ccc(NC(=O)C4CC4)cc3)n2)n[nH]1 [Tozasertib] (partner 0.1 µM)
Procedure, shortened: (§1)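 Five library-drug doses in √10 steps were combined with a fixed anchor-drug dose, or a single drug was given alone, by pin tool to lung cancer cell lines in 1536-well plates the day after seeding. Nuclei were stained and counted after 5 days. Relative viability is the nuclei count in treated wells over that in vehicle wells, taken as the median of duplicate plates.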

Doramapimod + OSI-027 = compound: Cc1ccc(-n2nc(C(C)(C)C)cc2NC(=O)Nc2ccc(OCCN3CCOCC3)c3ccccc23)cc1 [Doramapimod] + COc1cccc2cc(-c3nc([C@H]4CC[C@H](C(=O)O)CC4)n4ncnc(N)c34)[nH]c12 [OSI-027] (partner 0.5 µM)
Procedure, shortened: as §1

RAF265 + Linsitinib = compound: Cn1c(Nc2ccc(C(F)(F)F)cc2)nc2cc(Oc3ccnc(-c4ncc(C(F)(F)F)[nH]4)c3)ccc21 [RAF265] + C[C@]1(O)C[C@@H](c2nc(-c3ccc4ccc(-c5ccccc5)nc4c3)c3c(N)nccn32)C1 [Linsitinib] (partner 1 µM)
Procedure, shortened: as §1

RAF265 + Decitabine = compound: Cn1c(Nc2ccc(C(F)(F)F)cc2)nc2cc(Oc3ccnc(-c4ncc(C(F)(F)F)[nH]4)c3)ccc21 [RAF265] + Nc1ncn([C@H]2C[C@H](O)[C@@H](CO)O2)c(=O)n1 [Decitabine] (partner 2 µM)
Procedure, shortened: as §1

Cell Line	relative viability (IPA-3 + Tozasertib; first compound 0.2 µM)	relative viability (IPA-3 + Tozasertib; first compound 0.6325 µM)	relative viability (IPA-3 + Tozasertib; first compound 2 µM)	relative viability (IPA-3 + Tozasertib; first compound 6.325 µM)	relative viability (IPA-3 + Tozasertib; first compound 20 µM)	relative viability (Doramapimod + OSI-027; first compound 0.02 µM)	relative viability (Doramapimod + OSI-027; first compound 0.06325 µM)	relative viability (Doramapimod + OSI-027; first compound 0.2 µM)	relative viability (Doramapimod + OSI-027; first compound 0.6325 µM)	relative viability (Doramapimod + OSI-027; first compound 2 µM)	relative viability (RAF265 + Linsitinib; first compound 0.01 µM)	relative viability (RAF265 + Linsitinib; first compound 0.03162 µM)	relative viability (RAF265 + Linsitinib; first compound 0.1 µM)	relative viability (RAF265 + Linsitinib; first compound 0.3162 µM)	relative viability (RAF265 + Linsitinib; first compound 1 µM)	relative viability (RAF265 + Decitabine; first compound 0.01 µM)	relative viability (RAF265 + Decitabine; first compound 0.03162 µM)	relative viability (RAF265 + Decitabine; first compound 0.1 µM)	relative viability (RAF265 + Decitabine; first compound 0.3162 µM)	relative viability (RAF265 + Decitabine; first compound 1 µM)
201T	0.99	1	0.908	0.922	1.06	0.629	0.785	0.71	0.782	0.781	1.04	0.982	0.994	0.89	0.885	0.879	0.839	0.864	0.884	0.858
NCI-H2009	0.805	0.681	0.834	0.718	0.725	0.657	0.72	0.773	0.765	0.587	1.23	1.12	1.13	1.04	0.788	0.43	0.376	0.377	0.459	0.335
NCI-H1395	0.732	0.761	0.72	0.733	0.8	0.617	0.728	0.702	0.826	0.523	1.14	1	1.05	1.08	0.741	0.753	0.664	0.66	0.707	0.549
LU99A	0.325	0.255	0.213	0.267	0.239	0.299	0.341	0.261	0.344	0.272	0.471	0.423	0.323	0.308	0.273	0.814	0.842	0.652	0.477	0.302
NCI-H1437	0.482	0.387	0.416	0.394	0.468	0.953	0.883	0.852	0.938	0.866	1.09	1.01	1.08	1	0.945	0.613	0.622	0.571	0.661	0.574
EKVX	0.463	0.42	0.447	0.375	0.422	0.718	0.684	0.679	0.671	0.698	0.98	1.02	1.04	0.534	0.822	0.404	0.318	0.39	0.201	0.281
ABC-1	0.18	0.183	0.19	0.188	0.185	0.613	0.451	0.433	0.655	0.51	0.875	0.803	0.933	0.661	0.407	1.16	1.04	1.07	1.17	0.979
NCI-H520	0.459	0.444	0.468	0.434	0.447	0.229	0.276	0.223	0.245	0.232	0.941	0.949	0.939	0.912	0.631	0.567	0.418	0.478	0.452	0.345
LCLC-97TM1	0.255	0.178	0.259	0.216	0.189	0.533	0.412	0.517	0.437	0.432	0.169	0.158	0.149	0.136	0.11	0.248	0.203	0.191	0.159	0.122
NCI-H1793	0.316	0.271	0.368	0.377	0.425	0.238	0.262	0.278	0.36	0.242	0.794	0.767	0.779	0.46	0.376	0.554	0.463	0.438	0.332	0.277
NCI-H3122	0.431	0.4	0.381	0.509	0.428	0.956	0.853	0.938	1.04	1.01	1.02	1.2	0.947	1.02	0.841	0.408	0.379	0.429	0.304	0.29
PC-14	0.693	0.612	0.647	0.539	0.649	0.933	0.671	0.872	1.01	0.635	1.02	0.968	1.02	–	0.788	0.24	0.204	0.231	0.163	0.226
EPLC-272H	0.441	0.338	0.332	0.311	0.506	0.32	0.297	0.306	0.316	0.295	1.08	1.02	1.03	0.608	0.431	0.409	0.34	0.371	0.243	0.231
A-427	0.18	0.242	0.201	0.224	0.248	0.435	0.498	0.578	–	0.402	1.15	1.07	1.16	0.676	0.499	0.549	0.507	0.514	0.37	0.238
